Reference: ChEMBL document CHEMBL1201862, “PubChem BioAssay data set” (2004)
Calls of active or inactive are those of the source.

Columns and labels:
[1] = HepG2 cell cytotoxicity, dose response, cytotoxicity control, ATP luminescence, cherry-pick, activator set 2 (AID 1053143); format: functional, cell-based
Major prion protein = Major prion protein (Homo sapiens, UniProt P04156); format: functional, cell-based
cells [2] = assay: cells
Protein RecA = molecular target: T1, Protein RecA (Mycobacterium tuberculosis, UniProt P9WHJ3); assay: Fluorescence Cell-Free Homogeneous Dose Retest to Identify Inhibitors of RecA-Intein Splicing Activity. [Related pubchem assays (depositor defined):AID2097, AID2223, AID489010, AID492950]; format: functional
T1 sequence (P9WHJ3 whole entry): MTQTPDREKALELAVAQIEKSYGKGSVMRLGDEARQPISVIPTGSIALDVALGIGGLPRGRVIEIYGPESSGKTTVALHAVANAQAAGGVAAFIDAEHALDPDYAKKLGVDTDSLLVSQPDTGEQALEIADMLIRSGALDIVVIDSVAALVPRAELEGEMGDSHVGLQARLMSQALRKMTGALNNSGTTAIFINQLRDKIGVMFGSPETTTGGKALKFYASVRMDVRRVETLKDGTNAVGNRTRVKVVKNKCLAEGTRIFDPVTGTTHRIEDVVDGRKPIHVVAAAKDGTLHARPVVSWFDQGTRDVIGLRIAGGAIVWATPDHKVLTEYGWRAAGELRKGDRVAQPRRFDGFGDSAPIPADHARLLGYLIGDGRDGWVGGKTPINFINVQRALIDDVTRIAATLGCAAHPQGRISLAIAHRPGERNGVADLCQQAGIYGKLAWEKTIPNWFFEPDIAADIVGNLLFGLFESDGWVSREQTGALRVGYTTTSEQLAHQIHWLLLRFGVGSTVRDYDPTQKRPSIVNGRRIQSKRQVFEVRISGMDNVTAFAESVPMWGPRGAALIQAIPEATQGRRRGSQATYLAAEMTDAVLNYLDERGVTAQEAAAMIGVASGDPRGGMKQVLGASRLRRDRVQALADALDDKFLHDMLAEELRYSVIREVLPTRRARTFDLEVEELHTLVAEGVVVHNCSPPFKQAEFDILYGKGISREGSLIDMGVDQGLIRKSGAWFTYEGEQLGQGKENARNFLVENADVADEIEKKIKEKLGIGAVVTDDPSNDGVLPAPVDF

[3] = molecular target: T2, Replicative DNA helicase DnaB (Mycobacterium tuberculosis, UniProt P9WMR3); assay: DnaB intein splicing inhibitors, dose response, biochemical, cell-free fluorescence (AID 449749); format: functional
T2 sequence (P9WMR3 whole entry): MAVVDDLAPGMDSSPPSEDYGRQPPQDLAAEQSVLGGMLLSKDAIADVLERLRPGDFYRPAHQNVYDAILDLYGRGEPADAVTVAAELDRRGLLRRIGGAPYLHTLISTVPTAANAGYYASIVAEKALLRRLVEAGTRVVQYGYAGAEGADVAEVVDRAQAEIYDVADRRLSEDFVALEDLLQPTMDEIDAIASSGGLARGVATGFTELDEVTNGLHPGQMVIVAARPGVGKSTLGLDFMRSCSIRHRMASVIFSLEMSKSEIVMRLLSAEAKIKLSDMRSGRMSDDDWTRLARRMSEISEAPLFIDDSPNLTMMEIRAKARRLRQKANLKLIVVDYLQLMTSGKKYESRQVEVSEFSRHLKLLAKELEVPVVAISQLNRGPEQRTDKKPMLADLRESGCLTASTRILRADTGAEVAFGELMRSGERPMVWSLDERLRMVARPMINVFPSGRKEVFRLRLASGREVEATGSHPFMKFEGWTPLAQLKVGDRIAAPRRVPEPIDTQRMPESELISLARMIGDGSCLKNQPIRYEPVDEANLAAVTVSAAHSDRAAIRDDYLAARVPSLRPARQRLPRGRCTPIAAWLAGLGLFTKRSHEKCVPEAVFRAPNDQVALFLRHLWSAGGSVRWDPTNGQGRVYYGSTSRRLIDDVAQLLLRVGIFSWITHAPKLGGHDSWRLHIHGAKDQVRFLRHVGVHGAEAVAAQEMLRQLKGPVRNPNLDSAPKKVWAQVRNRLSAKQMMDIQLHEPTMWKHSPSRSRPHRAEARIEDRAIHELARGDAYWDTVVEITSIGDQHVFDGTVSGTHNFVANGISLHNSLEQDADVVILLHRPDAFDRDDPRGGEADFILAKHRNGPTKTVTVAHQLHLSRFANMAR

Galanin receptor type 3 = Galanin receptor type 3 (Homo sapiens, UniProt O60755); assay: Fluorescence-based cell-based primary high throughput dose response assay to identify antagonists of the Galanin Receptor 3 (GalR3).; format: functional
cells [4] = format: functional, cell-based; conditions: HEK-CNG
[5] = Shn3 3'UTR reporter inhibitors, dose response, cell-based, Clone20 osteoblasts, firefly luciferase, cherry-picked (AID 624132); format: functional;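 further: firefly luciferase luminescence from reporter carrying the Shn3 3'UTR in osteoblasts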
[6] = control 3'UTR Renilla luciferase suppression, dose response, counter-screen for Shn3 inhibitor project, cell-based, Clone20-Shn3RL, cherry-picked (AID 624133); format: functional
[7] = HepG2 cell cytotoxicity, dose response, cytotoxicity control for Shn3 inhibitor project, CellTiter-Glo, cherry-picked (AID 624134); format: functional, cell-based
[8] = inhibitors of control Renilla luciferase reporter, dose response, counter-screen for Shn3 3'UTR targeting project, Clone20-Shn3RL cells, dual-Glo, cherry-pick, set 2 (AID 720724); format: functional, cell-based; conditions: Dual-Go Shn3RL
[9] = reduction of Shn3 3'UTR firefly luciferase signal, dose response, Schnurri-3 inhibitor project, cell-based, Clone20 osteoblasts, cherry-pick, set 2 (AID 720490); format: functional;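 further: actives lower the luminescence signal as inhibitors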

Sequence of Galanin receptor type 3 (O60755 whole entry): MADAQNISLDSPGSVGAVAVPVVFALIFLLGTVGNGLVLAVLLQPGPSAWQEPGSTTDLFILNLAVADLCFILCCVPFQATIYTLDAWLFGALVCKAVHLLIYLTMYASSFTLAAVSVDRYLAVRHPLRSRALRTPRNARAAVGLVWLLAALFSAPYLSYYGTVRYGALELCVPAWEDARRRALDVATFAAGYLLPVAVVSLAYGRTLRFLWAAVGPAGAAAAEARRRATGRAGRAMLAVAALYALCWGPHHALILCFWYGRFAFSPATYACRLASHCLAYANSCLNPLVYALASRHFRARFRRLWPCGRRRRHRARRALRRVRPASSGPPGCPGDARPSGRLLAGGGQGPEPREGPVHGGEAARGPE

Compound: O=C(Nc1ccc2c(c1)CCC2)Nc1ccccc1Cl
- AC50 [1]: 26 µM (active)

Compound: Cc1nnc(S)c2nn(-c3ccccc3F)c(C)c12
- IC50 (Major prion protein): 8.71 µM (active)
- IC50 (cells [2]): > 138 µM (inactive)

Compound: CCOC(=O)c1c(-c2ccccc2)oc2cc(Br)c(O)cc12
- IC50 (Major prion protein): 1.44 µM (active)
- IC50 (cells [2]): 60 µM (inactive)

Compound: Cc1cc(C)c(C#N)c(SCc2n[nH]c3c2C(c2ccc(F)cc2)C(C#N)=C(N)O3)n1 (stereo unspecified)
- EC50 (Protein RecA): 11.2 µM (active)
- AC50 [3]: 6.74 µM (active)
- IC50 (Galanin receptor type 3): > 29.9 µM (inactive)
- EC50 (cells [4]): > 29.9 µM (inactive)

Compound: Cc1ccnc(SCC(=O)Nc2sc3c(c2C#N)CCCC3)n1
- AC50 [5]: 0.955 µM (active)
- AC50 [6]: 5 µM (active)
- IC50 (Galanin receptor type 3): > 1.11 µM (active)
- AC50 [7]: 66.8 µM (active)
- AC50 [8]: 11.9 µM (active)
- AC50 [9]: 1.18 µM (active)
- EC50 (cells [4]): > 29.9 µM (inactive)
